Source: ChEMBL document CHEMBL5154818, “Development of oxoisoaporphine derivatives with topoisomerase I inhibition and reversal of multidrug resistance in breast cancer MCF-7/ADR cells” (Eur J Med Chem, 2022)

system: HepG2; assay: Antiproliferative activity against human HepG2 cells after 48 hrs by MTT assay; format: functional, cell-based; conditions: HepG2, 48 h

| Structure (SMILES) | IC50 [µM] |
| --- | --- |
| CN1CCN(CCCOc2ccc3c4c(nccc24)-c2ccccc2C3=O)CC1 | 9.67 |
| O=C1c2ccccc2-c2nccc3c(OCCCCN4CCOCC4)ccc1c23 | 10.3 |
| CC1CCCCN1CCCCOc1ccc2c3c(nccc13)-c1ccccc1C2=O (stereo not drawn) | 10.1 |
| N#Cc1ncn(CCCCOc2ccc3c4c(nccc24)-c2ccccc2C3=O)c1C#N | 8.42 |
| O=C1c2ccccc2-c2nccc3c(OCCCCn4cnc([N+](=O)[O-])c4)ccc1c23 | 14.3 |
| O=C1c2ccccc2-c2nccc3c(OCCCCCn4cnc([N+](=O)[O-])c4)ccc1c23 | 8.67 |

Results, then the compound that gave them:

| IC50 [µM] | Structure (SMILES) |
| --- | --- |
| 12 | Cc1cn(CCCOc2ccc3c4c(nccc24)-c2ccccc2C3=O)cn1 |
| 7.46 | O=C1c2ccccc2-c2nccc3c(OCCCCn4cnc(Br)c4)ccc1c23 |
| 8.07 | O=C1c2ccccc2-c2nccc3c(OCCN4CCOCC4)ccc1c23 |
| 8.19 | CN1CCN(CCOc2ccc3c4c(nccc24)-c2ccccc2C3=O)CC1 |
| 28.2 | O=C1c2ccccc2-c2nccc3cccc1c23 |

system: MDA-MB-231; assay: Antiproliferative activity against human MDA-MB-231 cells after 48 hrs by MTT assay; format: functional, cell-based; conditions: MDA-MB-231, 48 h

| Structure (SMILES) | IC50 [µM] |
| --- | --- |
| CN1CCN(CCCOc2ccc3c4c(nccc24)-c2ccccc2C3=O)CC1 | 10.5 |
| O=C1c2ccccc2-c2nccc3c(OCCCCN4CCOCC4)ccc1c23 | 9.43 |
| CC1CCCCN1CCCCOc1ccc2c3c(nccc13)-c1ccccc1C2=O (stereo not drawn) | 8.46 |
| N#Cc1ncn(CCCCOc2ccc3c4c(nccc24)-c2ccccc2C3=O)c1C#N | 7.34 |
| O=C1c2ccccc2-c2nccc3c(OCCCCn4cnc([N+](=O)[O-])c4)ccc1c23 | 11.4 |
| O=C1c2ccccc2-c2nccc3c(OCCCCCn4cnc([N+](=O)[O-])c4)ccc1c23 | 8.29 |

Further lines, results first:

| IC50 [µM] | Structure (SMILES) |
| --- | --- |
| 12.1 | Cc1cn(CCCOc2ccc3c4c(nccc24)-c2ccccc2C3=O)cn1 |
| 10.2 | O=C1c2ccccc2-c2nccc3c(OCCCCn4cnc(Br)c4)ccc1c23 |
| 8.48 | O=C1c2ccccc2-c2nccc3c(OCCN4CCOCC4)ccc1c23 |
| 9.33 | CN1CCN(CCOc2ccc3c4c(nccc24)-c2ccccc2C3=O)CC1 |
| 32.2 | O=C1c2ccccc2-c2nccc3cccc1c23 |

system: NCI/ADR-RES; assay: Antiproliferative activity against human MCF7/ADR cells after 48 hrs by MTT assay; format: functional, cell-based; conditions: not given

| Structure (SMILES) | IC50 [µM] |
| --- | --- |
| Cc1cn(CCCOc2ccc3c4c(nccc24)-c2ccccc2C3=O)cn1 | 17.1 |
| CN1CCN(CCCOc2ccc3c4c(nccc24)-c2ccccc2C3=O)CC1 | 18.3 |
| O=C1c2ccccc2-c2nccc3c(OCCCCN4CCOCC4)ccc1c23 | 19.3 |
| CC1CCCCN1CCCCOc1ccc2c3c(nccc13)-c1ccccc1C2=O (stereo not drawn) | 15.2 |
| N#Cc1ncn(CCCCOc2ccc3c4c(nccc24)-c2ccccc2C3=O)c1C#N | 10.1 |
| O=C1c2ccccc2-c2nccc3c(OCCCCn4cnc([N+](=O)[O-])c4)ccc1c23 | 18.3 |
| O=C1c2ccccc2-c2nccc3c(OCCCCCn4cnc([N+](=O)[O-])c4)ccc1c23 | 11.5 |
| O=C1c2ccccc2-c2nccc3c(OCCCCn4cnc(Br)c4)ccc1c23 | 12.1 |
| O=C1c2ccccc2-c2nccc3c(OCCN4CCOCC4)ccc1c23 | 11.2 |
| CN1CCN(CCOc2ccc3c4c(nccc24)-c2ccccc2C3=O)CC1 | 13.2 |
| O=C1c2ccccc2-c2nccc3cccc1c23 | 40.9 |

system: L02; assay: Antiproliferative activity against human L02 cells after 48 hrs by MTT assay; format: functional, cell-based; conditions: L02, 48 h

| Structure (SMILES) | IC50 [µM] |
| --- | --- |
| Cc1cn(CCCOc2ccc3c4c(nccc24)-c2ccccc2C3=O)cn1 | 23.8 |
| CN1CCN(CCCOc2ccc3c4c(nccc24)-c2ccccc2C3=O)CC1 | 25.9 |
| O=C1c2ccccc2-c2nccc3c(OCCCCN4CCOCC4)ccc1c23 | 22.9 |
| CC1CCCCN1CCCCOc1ccc2c3c(nccc13)-c1ccccc1C2=O (stereo not drawn) | 28.4 |
| N#Cc1ncn(CCCCOc2ccc3c4c(nccc24)-c2ccccc2C3=O)c1C#N | 26.8 |
| O=C1c2ccccc2-c2nccc3c(OCCCCn4cnc([N+](=O)[O-])c4)ccc1c23 | > 50 |
| O=C1c2ccccc2-c2nccc3c(OCCCCCn4cnc([N+](=O)[O-])c4)ccc1c23 | 23.8 |
| O=C1c2ccccc2-c2nccc3c(OCCCCn4cnc(Br)c4)ccc1c23 | 32.3 |
| O=C1c2ccccc2-c2nccc3c(OCCN4CCOCC4)ccc1c23 | > 50 |
| CN1CCN(CCOc2ccc3c4c(nccc24)-c2ccccc2C3=O)CC1 | 22.4 |
| O=C1c2ccccc2-c2nccc3cccc1c23 | > 50 |

system: NCI/ADR-RES; assay: Reversal of multidrug resistant activity in human MCF7/ADR cells after 48 hrs by MTT assay; format: functional, cell-based; conditions: not given

| Structure (SMILES) | IC50 [µM] |
| --- | --- |
| CN1CCN(CCCOc2ccc3c4c(nccc24)-c2ccccc2C3=O)CC1 | 11.4 |
| O=C1c2ccccc2-c2nccc3c(OCCCCN4CCOCC4)ccc1c23 | 6.12 |
| CC1CCCCN1CCCCOc1ccc2c3c(nccc13)-c1ccccc1C2=O (stereo not drawn) | 1.82 |
| O=C1c2ccccc2-c2nccc3c(OCCN4CCOCC4)ccc1c23 | 10.1 |
| CN1CCN(CCOc2ccc3c4c(nccc24)-c2ccccc2C3=O)CC1 | 2.9 |

system: Calf thymus DNA; assay: Binding affinity to calf thymus DNA assessed as red shift in absorption spectra at 20 uM by UV-vis absorption spectroscopy; format: nucleic-acid assay; conditions: Bos taurus

| Structure (SMILES) | OD [nm] |
| --- | --- |
| CC1CCCCN1CCCCOc1ccc2c3c(nccc13)-c1ccccc1C2=O (stereo not drawn) | 1.6 |

system: MCF7; assay: Antiproliferative activity against human MCF7 cells after 48 hrs by MTT assay; format: functional, cell-based; conditions: MCF7, 48 h

| Structure (SMILES) | IC50 [µM] |
| --- | --- |
| CN1CCN(CCCOc2ccc3c4c(nccc24)-c2ccccc2C3=O)CC1 | 7.46 |
| O=C1c2ccccc2-c2nccc3c(OCCCCN4CCOCC4)ccc1c23 | 8.46 |
| CC1CCCCN1CCCCOc1ccc2c3c(nccc13)-c1ccccc1C2=O (stereo not drawn) | 9.95 |
| N#Cc1ncn(CCCCOc2ccc3c4c(nccc24)-c2ccccc2C3=O)c1C#N | 10.2 |
| O=C1c2ccccc2-c2nccc3c(OCCCCn4cnc([N+](=O)[O-])c4)ccc1c23 | 9.34 |
| O=C1c2ccccc2-c2nccc3c(OCCCCCn4cnc([N+](=O)[O-])c4)ccc1c23 | 10 |

More lines, now with the values ahead:

| IC50 [µM] | Structure (SMILES) |
| --- | --- |
| 9.35 | Cc1cn(CCCOc2ccc3c4c(nccc24)-c2ccccc2C3=O)cn1 |
| 7.95 | O=C1c2ccccc2-c2nccc3c(OCCCCn4cnc(Br)c4)ccc1c23 |
| 6.01 | O=C1c2ccccc2-c2nccc3c(OCCN4CCOCC4)ccc1c23 |
| 6.01 | CN1CCN(CCOc2ccc3c4c(nccc24)-c2ccccc2C3=O)CC1 |
| 24 | O=C1c2ccccc2-c2nccc3cccc1c23 |

system: Calf thymus DNA; assay: Binding affinity to calf thymus DNA assessed as hypochromicity at 20 uM measured by UV-vis absorption spectroscopy; format: nucleic-acid assay; conditions: Bos taurus

| Structure (SMILES) | Activity [%] |
| --- | --- |
| CC1CCCCN1CCCCOc1ccc2c3c(nccc13)-c1ccccc1C2=O (stereo not drawn) | 22 |

system: A549; assay: Antiproliferative activity against human A549 cells after 48 hrs by MTT assay; format: functional, cell-based; conditions: A549, 48 h

| Structure (SMILES) | IC50 [µM] |
| --- | --- |
| CN1CCN(CCCOc2ccc3c4c(nccc24)-c2ccccc2C3=O)CC1 | 10 |
| O=C1c2ccccc2-c2nccc3c(OCCCCN4CCOCC4)ccc1c23 | 9.63 |
| CC1CCCCN1CCCCOc1ccc2c3c(nccc13)-c1ccccc1C2=O (stereo not drawn) | 8.46 |
| N#Cc1ncn(CCCCOc2ccc3c4c(nccc24)-c2ccccc2C3=O)c1C#N | 6.17 |
| O=C1c2ccccc2-c2nccc3c(OCCCCn4cnc([N+](=O)[O-])c4)ccc1c23 | 12.2 |
| O=C1c2ccccc2-c2nccc3c(OCCCCCn4cnc([N+](=O)[O-])c4)ccc1c23 | 7.36 |

More lines, now with the values ahead:

| IC50 [µM] | Structure (SMILES) |
| --- | --- |
| 11.2 | Cc1cn(CCCOc2ccc3c4c(nccc24)-c2ccccc2C3=O)cn1 |
| 8.53 | O=C1c2ccccc2-c2nccc3c(OCCCCn4cnc(Br)c4)ccc1c23 |
| 6.37 | O=C1c2ccccc2-c2nccc3c(OCCN4CCOCC4)ccc1c23 |
| 7.26 | CN1CCN(CCOc2ccc3c4c(nccc24)-c2ccccc2C3=O)CC1 |
| 26.2 | O=C1c2ccccc2-c2nccc3cccc1c23 |

system: MCF7; assay: Antiproliferative activity against human MCF7 cells assessed as growth inhibition at 3 uM after 48 hrs by MTT assay relative to control; format: functional; conditions: read-out: GI

| Structure (SMILES) | inhibition of growth at 3 µM [%] |
| --- | --- |
| CN1CCN(CCCOc2ccc3c4c(nccc24)-c2ccccc2C3=O)CC1 | 8.89 |
| O=C1c2ccccc2-c2nccc3c(OCCCCN4CCOCC4)ccc1c23 | 17.4 |
| CC1CCCCN1CCCCOc1ccc2c3c(nccc13)-c1ccccc1C2=O (stereo not drawn) | 3.7 |
| O=C1c2ccccc2-c2nccc3c(OCCN4CCOCC4)ccc1c23 | 8.33 |
| CN1CCN(CCOc2ccc3c4c(nccc24)-c2ccccc2C3=O)CC1 | 9.48 |
